Data taken from patent US9394261B2, “Aryl amine substituted pyrimidine and quinazoline and their use as anticancer drugs” (National Yang-Ming University, priority 2012, dated 2016).
Entries after “also recorded” stand apart in the source; their conditions may differ.

Experiments:
[1] = tumor-bearing mice, p.o. daily for 3 weeks; erlotinib 50 mg/kg/day, compounds 8 and 19 20 mg/kg/day
PLC5 xenograft tumor = PLC5 xenograft tumor growth in nude mice; conditions: erlotinib 50 mg/kg/day; for tumor inhibition, PLC5 cell: p.o. daily, after 21 days of treatment, compounds 8 and 19 20 mg/kg/day
Procedure: (§5) The mice were housed in groups and maintained under standard laboratory conditions on a 12-hour light-dark cycle. They were given access to sterilized food and water ad libitum. All experimental procedures using these mice were performed in accordance with protocols approved by the Institutional Laboratory Animal Care and Use Committee of National Taiwan University. Each mouse was inoculated s.c. in the dorsal flank with 1×10^6 HCC cells suspended in 0.1 ml of serum-free medium containing 50% Matrigel (BD Biosciences, Bedford, Mass.). […] Controls received vehicle.
(§6) Tumor growth data points are reported as mean tumor volume±SE.

Huh-7 xenograft tumor = Huh-7 xenograft tumor growth in nude mice; conditions: erlotinib 50 mg/kg/day; for effect on Huh-7 tumor growth, in words: p.o. daily for 3 weeks, compounds 20 mg/kg/day (FIG. 7A-7B); for tumor inhibition, Huh7 cell: p.o. daily, after 21 days of treatment, compounds 8 and 19 20 mg/kg/day
Procedure: as §5, §6

EGFR = biological target: T1, EGFR (Homo sapiens, UniProt P00533, DEL746-750); experiment: western blot of EGFR phosphorylation in PC9 cells; type: cell-based; conditions: PC9 cells, 2 μM, 24 h (FIG. 3A)
T1 construct: endogenous in cells; host or cells: PC9 cells
Procedure: 40 μg/per lane of cell lysates were analyzed by western blot. The antibodies of actin, EGFR, and p-EGFR were from Cell Signaling (Danvers, Mass.). In FIGS. 1A-1B, actin lines are used to show an internal standard for the loading control in this western blot.

[2] = test system: SK-Hep-1 cell lines (a hepatocellular carcinoma (HCC) cell); experiment: MTT assay, growth inhibition of SK-Hep-1 cells; type: cell-based; conditions: SK-Hep-1 cells, 48 hours
Procedure: MTT assay was used to measure growth inhibition. […] MTT (3-(4,5-dimethylthiazol-2-yl)-2,5-diphenyl tetrazolium bromide) assay was performed as follow.
(§1) The effect of individual test compounds on cell viability was assessed by using the MTT in 6 replicates. Sk-Hep-1 cells were seeded and incubated in 96-well, flat-bottomed plates for 24 hours, and were exposed to various concentrations of test compounds dissolved in DMSO (final concentration, 0.1%) for 48 hours. Controls received DMSO vehicle at a concentration equal to that in drug-treated cells. The medium was removed, replaced by 200 μL of 0.5 mg/mL MTT in 10% fetal bovine serum containing DMEM (Dulbecco's Modified Eagle Medium), and cells were incubated in the carbon dioxide incubator at 37° C. for 2 hours. Supernatants were removed from the wells and the reduced MTT dye was solubilized in 100 μL/well DMSO. Absorbance at 570 nm was determined on a plate reader.
The SK-Hep1 cells were then analyzed with western blot assay and MTT assay.

Hep3B cell lines = experiment: MTT assay, growth inhibition of Hep3B cells; type: cell-based; conditions: Homo sapiens
Procedure: as §1
Next, compounds 19, and 34-36 were screened against a panel of Hep3B cell lines for growth-inhibitory activities. […] Compounds 87-90, 95 and 96 were screened against a panel of PLC5 cell lines for growth-inhibitory activities.

CIP2A [3] = experiment: western blot of CIP2A expression in SK-Hep1 cells; type: cell-based; conditions: SK-Hep-1 cells
Procedure: Accordingly, the pyrimidine and quinazoline derivatives above were screened by using western blot analysis for expression of CIP2A in SK-Hep1 cells. Before the western blot analysis, the SK-Hep-1 cells were maintained in DMEM supplemented with 10% FBS, 100 units/mL penicillin G, 100 μg/mL streptomycin sulfate and 25 μg/mL amphotericin B in a 37° C. humidified incubator in an atmosphere of 5% CO2 in air. In this western blot analysis, SK-Hep1 cells were respectively treated with compounds 1-24 at a concentration of 20 μM for 24 hours. In FIG. 2, the mono-substituted pyrimidine derivatives (compounds 1-5) have no appreciable change in CIP2A expression.
Cell viability, measured by MTT assay, and CIP2A expressions, analyzed by western blot, in response to compound 19 or erlotinib treatment in SK-Hep1 cell line were analyzed. SK-Hep-1 cells were treated with erlotinib and compound 19 at 2.5 and 5 μM for 24 h, respectively. The SK-Hep1 cells were then analyzed with western blot assay and MTT assay.
(§2) Next, compounds […], 19, and 22 were used to explore whether downregulation of CIP2A lead to suppression of p-Akt. FIG. 4A is the western blot analysis of the effect of the compounds 4, 19, and 22 on phosphorylation of Akt, PARP and Actin. In this western blot analysis, SK-Hep-1 cells were respectively treated with compounds 4, 19, and 22 at a concentration of 5 μM for 30 hours. […] That is, compound 19 and 22 can substantially increase apoptotic cell death to inhibit cancer growth.

CIP2A [4] = experiment: western blot of CIP2A expression in H358, H460 and H322 lung cancer cells; type: cell-based; conditions: 5 μM (FIG. 3C)
Procedure: (§3) Similarly, CIP2A expressions analyzed by western blot were also performed for lung cancer cells, H358, H460, and H322 cell lines. Moreover, drug-induced apoptotic cell death was also assessed by western blot analysis of activated caspases cleaved poly(ADP-ribose)polymerase (PARP). The cleavage of PARP is explained as follow. The compound induces apoptotic signal which cleave the procaspase 3 to the active caspase 3. The activation of caspase 3 further cleaves PARP and inactivate PAPR function. The events are thought to be required in late apoptosis. Therefore, the PARP cleavage is an indicator of apoptosis.
(§4) In the PARP row of FIG. 3C, the upper bands represented the uncleavage PARP, and the middle band and lower band represented cleavage PARP.

PARP [5] = experiment: western blot of PARP cleavage in H358, H460 and H322 lung cancer cells; type: cell-based; conditions: 5 μM (FIG. 3C)
Procedure: as §3, §4

p-Akt = experiment: western blot of p-Akt in SK-Hep-1 cells; type: cell-based; conditions: SK-Hep-1 cells, 5 μM, 30 hours (FIG. 4A)
Procedure: as §2
In other words, in the present of okadaic acid, the activation of PP2A by compound 19-incuced CIP2A inactivation is blocked.

PARP [6] = experiment: western blot of PARP cleavage in SK-Hep-1 cells; type: cell-based; conditions: 5 μM, 30 hours (FIG. 4A)
Procedure: as §2

SK-Hep-1 cells = experiment: apoptotic cell death by flow cytometry (sub-G1) and cell death detection ELISA; type: cell-based; conditions: 2.5 and 5 μM, 24 h (FIG. 4B-4C)
Procedure: FIG. 4B is flow cytometry analysis of cell death induced by compounds 4, 19, and 22 at 5 μM, after 24 h of treatment in SK-Hep-1 cells. The apoptotic cells were assessed by flow cytometry (sub-G1). After Sk-Hep-1 cells were treated with compounds 4, 19, and 22, Sk-Hep-1 cells were trypsinized, collected by centrifugation and resuspended in PBS. After centrifugation, the cells were washed in PBS and resuspended in […] (PI) staining solution. Specimens were incubated in the dark for 30 min at 37° C. and then analyzed with an EPICS Profile II flow cytometer (Coulter Corp., Hialeah, Fla.). All experiments were performed in triplicate
FIG. 4C is ELISA analysis of cell death to analyze effects of compounds 4, 19, and 22 on DNA fragmentation in SK-Hep-1 cells. The effect of compounds 4, 19 and 22 on cell viability was assessed by a cell death detection ELISA kit (Roche Applied Science, Mannheim, Germany). SK-Hep-1 cells were treated with compounds 4 and 19 at 22 at 2.5 and 5 μM for 24 h. The cells were collected and assayed according to the standard protocol provided by the manufacturer.

[7] = test system: SK-Hep-1 cell lines (a hepatocellular carcinoma (HCC) cell); experiment: MTT assay, growth inhibition of SK-Hep-1 cells; type: cell-based; conditions: 2.5 and 5 μM, 24 h (FIG. 3B)

T1 sequence (P00533 with tags, fused parts or gaps DEL746-750): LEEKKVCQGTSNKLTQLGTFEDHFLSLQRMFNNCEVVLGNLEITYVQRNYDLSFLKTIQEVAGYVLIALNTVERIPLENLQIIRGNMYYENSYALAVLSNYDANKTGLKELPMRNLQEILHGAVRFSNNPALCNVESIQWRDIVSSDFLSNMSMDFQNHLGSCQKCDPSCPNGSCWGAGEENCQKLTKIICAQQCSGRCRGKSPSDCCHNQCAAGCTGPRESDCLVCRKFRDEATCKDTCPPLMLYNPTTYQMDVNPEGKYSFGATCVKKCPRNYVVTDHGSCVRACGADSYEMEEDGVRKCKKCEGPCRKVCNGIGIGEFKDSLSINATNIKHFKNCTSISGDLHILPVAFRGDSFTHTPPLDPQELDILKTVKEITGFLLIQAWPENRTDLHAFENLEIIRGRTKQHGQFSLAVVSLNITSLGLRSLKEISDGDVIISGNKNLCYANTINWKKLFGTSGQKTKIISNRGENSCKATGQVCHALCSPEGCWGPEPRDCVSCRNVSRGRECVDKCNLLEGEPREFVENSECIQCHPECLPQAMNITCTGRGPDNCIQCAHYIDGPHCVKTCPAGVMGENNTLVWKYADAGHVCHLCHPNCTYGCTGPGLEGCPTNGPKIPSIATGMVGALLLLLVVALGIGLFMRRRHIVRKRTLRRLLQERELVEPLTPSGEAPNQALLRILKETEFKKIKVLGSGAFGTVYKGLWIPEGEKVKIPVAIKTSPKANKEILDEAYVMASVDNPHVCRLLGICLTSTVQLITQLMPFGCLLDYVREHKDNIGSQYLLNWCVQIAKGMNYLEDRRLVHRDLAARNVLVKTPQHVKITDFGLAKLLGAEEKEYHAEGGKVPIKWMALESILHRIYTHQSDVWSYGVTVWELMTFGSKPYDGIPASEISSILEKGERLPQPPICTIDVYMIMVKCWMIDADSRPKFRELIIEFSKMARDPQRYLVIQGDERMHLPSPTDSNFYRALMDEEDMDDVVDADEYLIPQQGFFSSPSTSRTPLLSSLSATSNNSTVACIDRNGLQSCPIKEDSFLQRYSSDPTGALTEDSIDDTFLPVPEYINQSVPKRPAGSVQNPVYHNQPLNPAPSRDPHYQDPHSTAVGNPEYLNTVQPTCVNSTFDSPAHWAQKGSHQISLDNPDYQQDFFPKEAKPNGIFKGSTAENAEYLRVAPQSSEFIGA

Row | SMILES | tolerability (signs of toxicity, body weight, necropsy) [1] | tumor inhibition, PLC5 cell (PLC5 xenograft tumor) | effect on Huh-7 tumor growth, in words (Huh-7 xenograft tumor) | tumor inhibition, Huh7 cell (Huh-7 xenograft tumor) | EGFR phosphorylation inhibition (western blot) (EGFR) | IC50 [2] | IC50 (Hep3B cell lines) | inhibiting CIP2A expression (CIP2A [3]; 5 μM, 30 hours (FIG. 4A)) | CIP2A expression (CIP2A [3]; 2.5 and 5 μM, 24 h (FIG. 3B)) | CIP2A expression (CIP2A [4]) | PARP cleavage (PARP [5]) | p-Akt level (p-Akt) | PARP cleavage (PARP [6]) | cell apoptosis (sub-G1 flow cytometry, DNA fragmentation ELISA) (SK-Hep-1 cells) | cell viability (MTT) [7] | effect on PLC5 tumor growth, in words (PLC5 xenograft tumor; p.o. daily for 3 weeks, compounds 20 mg/kg/day (FIG. 6A-6B))
1 | C#Cc1cccc(Nc2ncnc3cc(OCCOC)c(OCCOC)cc23)c1 [erlotinib, reference compound] | tolerated the treatments well without observable signs of toxicity | 50.0% | no effect on tumor growth | 8.8% |  |  |  |  |  |  |  |  |  |  |  | 
2 | C#Cc1cccc(Nc2nc(Nc3ccc(Oc4ccccc4)cc3)nc3cc(OC)c(OC)cc23)c1 [Compound 19, N^4-(3-Ethynylphenyl)-6,7-dimethoxy-N^2-(4-phenoxyphenyl)quinazoline-2,4-diamine] |  | 60.6% | better inhibitory effect on Huh-7 tumors than erlotinib | 34.8% | no inhibitory effect on EGFR kinase | 2800 nM | 1280 nM | inhibiting CIP2A expression; also recorded: most potent inhibition of CIP2A expression | reduce the CIP2A expression | down-regulate the expression of CIP2A | induce the cleavage of PARP | reducing p-Akt level; also recorded: reduced Akt phosphorylation | inducing PARP cleavage | induced cell apoptosis | reduce the CIP2A expression and the cell viability in a dosage dependent manner | significantly reduced the growth of tumor; also recorded: better inhibitory effect on PLC5 tumors than erlotinib; also recorded: significantly reducing the growth of tumor
